Results taken from US10080366B2, “Agent for increasing sugar content in fruit” (RIKEN, priority 2012, dated 2018).
Where two headings read alike, the source gives them in different places.

Assays:
Mikan = settings: dilution ratio 100 (10 g/L); 6 days after treatment
[1] = test system: fruit of grape in a farm field
Procedure: To the fruit of grape in a farm field before harvest, potassium hydrogen carbonate diluted with water to a concentration of 10 g/L (Table 17) or 20 g/L (Table 18) was applied three times in total at intervals of 7 days. The grape was harvested 21 days after the first application, and the masses of amino acids contained in each of the fruit of grape treated with potassium hydrogen carbonate and untreated fruit of grape were measured. In addition, the degree of increase in the concentration of each amino acid in the grape treated with potassium hydrogen carbonate in comparison with the concentration of the amino acid in the untreated grape was determined as a ratio of “the concentration of the amino acid in the grape treated with potassium hydrogen carbonate/the concentration of the amino acid in the untreated grape.” Moreover, the sugar contents in the grape treated with potassium hydrogen carbonate and the untreated grape were also measured, and the ratio (the sugar content in the grape treated with potassium hydrogen carbonate/the sugar content in the untreated grape) was determined.
Arg: arginine, GluNH2: glutamine, Orn: ornithine, Ala: alanine, NH3: ammonia, Cit: citrulline, AspNH2: asparagine, a-ABA: α-amino-n-butyric acid, Glu: glutamic acid, Asp: aspartic acid, Thr: threonine, Ser: serine, Lys: lysine, His: histidine, Gly: glycine, Phe: phenylalanine, Sar: sarcosine, Val: valine, Cys: cysteine, b-AiBA: β-aminoisobutyric acid, PEA: phosphoethanolamine, a-AAA: α-aminoadipic acid, EOHNH2: ethanolamine, b-Ala: β-alanine, Leu: leucine, g-ABA: […], Ile: isoleucine, Met: methionine, Urea: urea, Trp: tryptophan, Tyr: tyrosine, and Cysthi: cystathionine.

[2] = test system: clusters of grape (variety: Crimson); assay: Estimated transpiration ratio of grape clusters (Example 9); format: in vivo; settings: 10 g/L; 8 days after treatment

## O=C([O-])O.[K+] [Potassium hydrogen carbonate, potassium hydrogen carbonate]
Mikan
  Ratio (%) of decrease in body weight of fruit: 12.6%
[1]; 10 g/L x3
  Ala, Ratio treated/untreated: 5.229
  Ala, Treated Mass: 601.952 ng
  Arg, Ratio treated/untreated: 10.658
  Asp, Ratio treated/untreated: 2.694
  Asp, Treated Mass: 89.293 ng
  AspNH2, Ratio treated/untreated: 3.987
  AspNH2, Treated Mass: 14.746 ng
  Cit, Ratio treated/untreated: 4.673
  Cit, Treated Mass: 11.464 ng
  Cys, Ratio treated/untreated: 1.154
  Cys, Treated Mass: 117.021 ng
  Cysthi, Ratio treated/untreated: 0.457
  Cysthi, Treated Mass: 1.016 ng
  EOHNH2, Ratio treated/untreated: 1.02
  EOHNH2, Treated Mass: 53.297 ng
  Glu, Ratio treated/untreated: 2.915
  Glu, Treated Mass: 1091.265 ng
  GluNH2, Ratio treated/untreated: 7.046
  GluNH2, Treated Mass: 347.152 ng
  Gly, Ratio treated/untreated: 1.553
  Gly, Treated Mass: 25.939 ng
  His, Ratio treated/untreated: 1.615
  His, Treated Mass: 96.252 ng
  Ile, Ratio treated/untreated: 0.875
  Ile, Treated Mass: 72.435 ng
  Leu, Ratio treated/untreated: 1.012
  Leu, Treated Mass: 110.503 ng
  Lys, Ratio treated/untreated: 1.768
  Lys, Treated Mass: 18.865 ng
  Met, Ratio treated/untreated: 0.839
  Met, Treated Mass: 6.131 ng
  NH3, Ratio treated/untreated: 4.713
  NH3, Treated Mass: 438.689 ng
  Orn, Ratio treated/untreated: 6.692
  Orn, Treated Mass: 23.882 ng
  PEA, Ratio treated/untreated: 1.032
  PEA, Treated Mass: 87.942 ng
  Phe, Ratio treated/untreated: 1.527
  Phe, Treated Mass: 51.201 ng
  Sar, Ratio treated/untreated: 1.271
  Sar, Treated Mass: 62.178 ng
  Ser, Ratio treated/untreated: 2.585
  Ser, Treated Mass: 360.511 ng
  Sugar content, Ratio treated/untreated: 1.06
  Sugar content, Treated: 22.6%
  Thr, Ratio treated/untreated: 2.615
  Thr, Treated Mass: 342.259 ng
  Total, Ratio treated/untreated: 2.203
  Total, Treated Mass: 1082.09 ng
  Trp, Ratio treated/untreated: 0.641
  Trp, Treated Mass: 4.840 ng
  Tyr, Ratio treated/untreated: 0.59
  Tyr, Treated Mass: 17.739 ng
  Urea, Ratio treated/untreated: 0.757
  Urea, Treated Mass: 105.062 ng
  Val, Ratio treated/untreated: 1.256
  Val, Treated Mass: 191.700 ng
  a-AAA, Ratio treated/untreated: 1.031
  a-AAA, Treated Mass: 3.261 ng
  a-ABA, Ratio treated/untreated: 3.246
  a-ABA, Treated Mass: 9.038 ng
  b-AiBA, Ratio treated/untreated: 1.129
  b-AiBA, Treated Mass: 9.663 ng
  b-Ala, Ratio treated/untreated: 1.019
  b-Ala, Treated Mass: 197.064 ng
  g-ABA, Ratio treated/untreated: 0.891
  g-ABA, Treated Mass: 637.915 ng
[1]; 10 g/L x3, harvest 21 days after first application
  Arg, Treated Mass: 1383.991 ng
[1]; 20 g/L x3
  1Mehis, Ratio treated/untreated: 1.167
  1Mehis, Treated Mass: 1.184 ng
  Ala, Ratio treated/untreated: 6.161
  Ala, Treated Mass: 709.236 ng
  Arg, Ratio treated/untreated: 15.532
  Asp, Ratio treated/untreated: 2.614
  Asp, Treated Mass: 86.648 ng
  AspNH2, Ratio treated/untreated: 7.214
  AspNH2, Treated Mass: 26.684 ng
  Cit, Ratio treated/untreated: 12.285
  Cit, Treated Mass: 30.134 ng
  Cys, Ratio treated/untreated: 1.41
  Cys, Treated Mass: 142.979 ng
  Cysthi, Ratio treated/untreated: 0.3
  Cysthi, Treated Mass: 0.667 ng
  EOHNH2, Ratio treated/untreated: 1.164
  EOHNH2, Treated Mass: 76.497 ng
  Glu, Ratio treated/untreated: 1.85
  Glu, Treated Mass: 693.282 ng
  GluNH2, Ratio treated/untreated: 11.395
  GluNH2, Treated Mass: 561.408 ng
  Gly, Ratio treated/untreated: 1.847
  Gly, Treated Mass: 34.546 ng
  His, Ratio treated/untreated: 2.312
  His, Treated Mass: 137.818 ng
  Ile, Ratio treated/untreated: 1.149
  Ile, Treated Mass: 95.120 ng
  Leu, Ratio treated/untreated: 1.387
  Leu, Treated Mass: 151.405 ng
  Lys, Ratio treated/untreated: 2.452
  Lys, Treated Mass: 26.170 ng
  Met, Ratio treated/untreated: 1.325
  Met, Treated Mass: 9.698 ng
  NH3, Ratio treated/untreated: 4.845
  NH3, Treated Mass: 450.976 ng
  Orn, Ratio treated/untreated: 11.668
  Orn, Treated Mass: 41.643 ng
  PEA, Ratio treated/untreated: 1.644
  PEA, Treated Mass: 140.112 ng
  Phe, Ratio treated/untreated: 1.961
  Phe, Treated Mass: 65.750 ng
  Sar, Ratio treated/untreated: 1.5191
  Sar, Treated Mass: 74.309 ng
  Ser, Ratio treated/untreated: 3.553
  Ser, Treated Mass: 495.547 ng
  Sugar content, Ratio treated/untreated: 1.24
  Sugar content, Treated: 25.9%
  Thr, Ratio treated/untreated: 3.174
  Thr, Treated Mass: 415.421 ng
  Total, Ratio treated/untreated: 2.525
  Total, Treated Mass: 1239.923 ng
  Trp, Ratio treated/untreated: 0.973
  Trp, Treated Mass: 7.348 ng
  Tyr, Ratio treated/untreated: 0.994
  Tyr, Treated Mass: 29.898 ng
  Val, Ratio treated/untreated: 1.587
  Val, Treated Mass: 242.163 ng
  a-AAA, Ratio treated/untreated: 1.408
  a-AAA, Treated Mass: 4.352 ng
  a-ABA, Ratio treated/untreated: 3.555
  a-ABA, Treated Mass: 9.898 ng
  b-AiBA, Ratio treated/untreated: 1.12
  b-AiBA, Treated Mass: 9.588 ng
  b-Ala, Ratio treated/untreated: 1.202
  b-Ala, Treated Mass: 232.373 ng
  g-ABA, Ratio treated/untreated: 1.811
  g-ABA, Treated Mass: 1298.441 ng
[1]; 20 g/L x3, harvest 21 days after first application
  Arg, Treated Mass: 2018.4554 ng
[2]
  Estimated transpiration ratio (%) Average: 31%
  Estimated transpiration ratio (%) First: 33%
  Estimated transpiration ratio (%) Second: 28%
